According to paper PMC7535926, “Serine phosphorylation regulates the P-type potassium pump KdpFABC” (eLife, 2020):

Target: T1, KdpFABC (WT) (Escherichia coli, UniProt P03960)
T1 construct: gene kdpB; full-length kdpFABC operon on plasmid pSD107 (native promoter), 8x His tag at C-terminus of KdpC; expressed in E. coli TK2499; purified in decyl maltoside; KdpB Ser162 phosphate removed with lambda protein phosphatase; Potassium-transporting ATPase KdpC subunit; Potassium-transporting ATPase KdpF subunit
T1 sequence (P03960 whole entry): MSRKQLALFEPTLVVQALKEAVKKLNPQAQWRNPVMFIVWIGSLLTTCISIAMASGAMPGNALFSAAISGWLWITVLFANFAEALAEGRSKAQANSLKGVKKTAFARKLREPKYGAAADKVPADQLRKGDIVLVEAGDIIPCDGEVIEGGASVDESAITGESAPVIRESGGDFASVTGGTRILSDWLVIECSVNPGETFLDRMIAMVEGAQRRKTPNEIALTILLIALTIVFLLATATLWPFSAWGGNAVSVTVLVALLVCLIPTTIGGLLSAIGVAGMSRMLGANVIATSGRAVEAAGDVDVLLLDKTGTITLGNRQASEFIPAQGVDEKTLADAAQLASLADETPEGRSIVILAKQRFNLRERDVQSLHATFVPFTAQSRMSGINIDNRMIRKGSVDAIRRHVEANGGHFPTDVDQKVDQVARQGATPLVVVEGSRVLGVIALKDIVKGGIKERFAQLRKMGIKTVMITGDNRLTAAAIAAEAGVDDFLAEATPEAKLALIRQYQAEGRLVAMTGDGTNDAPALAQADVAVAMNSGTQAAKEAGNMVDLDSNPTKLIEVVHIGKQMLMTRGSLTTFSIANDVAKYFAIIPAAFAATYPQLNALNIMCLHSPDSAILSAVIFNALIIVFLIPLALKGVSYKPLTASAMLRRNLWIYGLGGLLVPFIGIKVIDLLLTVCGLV
T1 sequence (P03959 whole entry partner): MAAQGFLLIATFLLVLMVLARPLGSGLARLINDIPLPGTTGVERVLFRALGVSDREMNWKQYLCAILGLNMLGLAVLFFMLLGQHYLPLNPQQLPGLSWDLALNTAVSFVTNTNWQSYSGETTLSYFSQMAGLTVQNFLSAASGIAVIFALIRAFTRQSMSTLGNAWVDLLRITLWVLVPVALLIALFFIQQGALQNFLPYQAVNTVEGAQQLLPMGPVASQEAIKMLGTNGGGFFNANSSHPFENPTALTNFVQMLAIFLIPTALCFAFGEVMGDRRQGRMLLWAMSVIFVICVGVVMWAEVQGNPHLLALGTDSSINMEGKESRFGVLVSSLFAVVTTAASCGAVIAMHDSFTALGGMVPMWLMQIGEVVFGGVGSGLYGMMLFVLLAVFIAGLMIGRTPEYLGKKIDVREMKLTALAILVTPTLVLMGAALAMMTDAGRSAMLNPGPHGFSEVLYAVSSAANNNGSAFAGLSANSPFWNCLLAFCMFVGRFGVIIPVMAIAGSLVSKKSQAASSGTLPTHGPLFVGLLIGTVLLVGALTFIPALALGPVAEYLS
T1 sequence (P03961 whole entry partner): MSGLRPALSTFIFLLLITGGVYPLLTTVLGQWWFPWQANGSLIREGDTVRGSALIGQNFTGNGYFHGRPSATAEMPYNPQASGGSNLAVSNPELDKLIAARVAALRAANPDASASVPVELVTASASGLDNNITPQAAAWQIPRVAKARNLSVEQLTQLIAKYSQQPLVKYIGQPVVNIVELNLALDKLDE
T1 sequence (P36937 whole entry partner): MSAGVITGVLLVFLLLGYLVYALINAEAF
Assay: coupled-enzyme ATPase assay (pyruvate kinase / lactate dehydrogenase)
Type: biochemical

`[O]=[V]([OH])([OH])[OH]` [orthovanadate] showed an IC50 of 8.4 µM.
